Measurements taken from US20250108119A1, “NOVEL STEROID PAYLOADS, STEROID LINKERS, ADCs CONTAINING AND USE THEREOF” (IMMUNEXT, INC., priority 2021, published 2025).
Entries after “also recorded” stand apart in the source; their conditions may differ.

Tests used:
human PBMC = assay: Cytokine production (IL-1β, IL-6) at 24 hr by human PBMC incubated with 1 ng/mL LPS; format: cell-based; settings: free steroid payloads, serial dilutions, 1 ng/mL LPS, 24 hr
Protocol: (§1) FIG. 51: INX-SM-3, INX-SM-4, and INX-SM-1 inhibit IL-1β (left) and IL-6 (right) production. Cytokine levels were measured at 24 hr for human PBMCS incubated with 1 ng/mL LPS and serial dilutions (1000-1 nM) of steroid payloads, with the no treatment control plotted on the log-scale x-axis at <1 nM; n=1 donor, standard deviation plotted from technical duplicates.
as §1, with “52: INX-SM-1,” for “51:”, “INX-SM-4” for “INX-SM-4,”, “INX-SM-6” for “INX-SM-1”, “IL-1β” for “IL-1β (left) and IL-6 (right)”, “levels” for “levels were”, “ng/ml” for “ng/mL”
(§2) FIG. 53: INX-SM-9, INX-SM-31 and INX-SM-35 inhibit IL-1β (top) and IL-6 (bottom) production. Cytokine levels measured at 24 hr for human PBMCS incubated with 1 ng/mL LPS and serial dilutions (1000-0.2 nM) of steroid payloads, with the no treatment control plotted on the log-scale x-axis at <0.2 nM; n=2 donors-representative donor shown. Standard deviation plotted from technical duplicates.
as §2, with “54: INX-SM-32 inhibits” for “53: INX-SM-9, INX-SM-31 and INX-SM-35 inhibit”, “(500-1” for “(1000-0.2”, “<1” for “<0.2”, “n=2. Representative” for “n=2 donors-representative”
Cytokine levels measured at 24 hr for human PBMCS incubated with 1 ng/ml LPS and serial dilutions (1000-0.5 nM) of steroid payloads, with the no treatment control plotted on the log-scale x-axis at <0.5 nM; n=1 donor, standard deviation plotted from technical duplicates.
FIG. 56: INX-SM-2 and INX-SM-7 show inhibition in IL-1β. Average Cytokine levels measured at 24 hr for human PBMCS incubated with 1 ng/ml LPS and serial dilutions (1000-0.16 nM) of steroid payloads, with the no treatment control plotted on the log-scale x-axis at <0.16 nM; n=1, standard deviation plotted from technical duplicates. […]
Average cytokine levels measured at 24 hr for human PBMC incubated with 1 ng/ml LPS and serial dilutions (100-0.032 nM) of glucocorticoid payloads; n=1, mean of technical duplicates.
Average cytokine levels measured at 24 hr for human PBMC incubated with 1 ng/mL LPS and serial dilutions (1000-0.32 nM) of glucocorticoid payloads; n=1, mean of technical duplicates.
Cytokine levels measured at 24 hr for human PBMC incubated with 1 ng/mL LPS and serial dilutions (1000-0.5 nM) of steroid payloads, with the no treatment control plotted on the log-scale x-axis at <0.5 nM; n=1 donor, mean of technical duplicates plotted.
Average cytokine levels for A. hull-1β B. huIL-6 measured at 24 hr for human PBMC incubated with 1 ng/mL LPS and serial dilutions (1000-0.16 nM) of conjugated steroid linker payloads, with the no treatment control plotted on the log-scale x-axis at <0.16 nM; n=1, standard deviation plotted from technical duplicates. Values above the ULOQ (12,500 pg/mL for IL-1b and 150,000 pg/mL for IL-6) were plotted as the extrapolated value.
Average cytokine levels for IL-1β measured at 24 hr for human PBMC incubated with 1 ng/mL LPS and serial dilutions (1000-0.16 nM) of conjugated steroid linker payloads, with the no treatment control plotted on the log-scale x-axis at <0.16 nM; n=1, mean plotted of technical duplicates
Average cytokine levels for IL-1β measured at 24 hr for human PBMC incubated with 1 ng/mL LPS and serial dilutions (1000-0.16 nM) of conjugated steroid linker payloads, with the no treatment control plotted on the log-scale x-axis at <0.16 nM; n=1, mean plotted of technical duplicates.
FIG. 66: Analogs of INX V are potent relative to INX231J. […]

[1] = system: LPS stimulated human PBMCs; assay: LPS stimulated human PBMC, IL-1β and IL-6 ELISA; format: cell-based
How it was run: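 Human PBMC (1-2 healthy donors), 150,000 cells/well, treated with test agents at 1,000 nM down to 1 nM or 0.2 nM, in duplicate. LPS at 1 ng/ml added immediately after free payload or 4 h after conjugates; IL-1β and IL-6 in supernatants measured by ELISA.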

[2] = Experiment 3: free payload 1000-0.2 nM, 24 hr, n=2 donors
[3] = Experiment 8: free payload 1000-0.5 nM

Compound | inhibition of IL-1β production (human PBMC) | inhibition of IL-6 production (human PBMC) | also measured
C[C@]12C=CC(=O)C=C1CC[C@@H]1[C@@H]2[C@@H](O)C[C@@]2(C)[C@H]1C[C@H]1O[C@@H](c3ccc(OC4CC5(CC(N)C5)C4)cc3)O[C@]12C(=O)CO (stereo partly drawn) [INX-SM-43, (6aR,6bS,7S,8aS,8bS,10R,11aR,12aS,12bS)-10-(4-((6-aminospiro[3.3]heptan-2-yl)oxy)phenyl)-7-hydroxy-8b-(2-hydroxyacetyl)-6a,8a-dimethyl-1,2,6a,6b,7,8,8a,8b,11a,12, 12a,12b-dodecahydro-4H-naphtho[2′,1′:4,5]indeno[1,2-d][1,3]dioxol-4-one] | moderate inhibition |  | inhibition of huIL1-β ([1]; Experiment 7: free payload, INX-SM-43 100-0.032 nM, INX-SM-44 1000-0.32 nM): moderate inhibition of huIL1-β
C[C@]12C=CC(=O)C=C1CC[C@@H]1[C@@H]2[C@@H](O)C[C@@]2(C)[C@H]1C[C@H]1O[C@@H](c3ccc(CC4COC5(CNC5)C4)cc3)O[C@]12C(=O)CO (stereo partly drawn) [INX-SM-31, (6aR,6bS,7S,8aS,8bS,11aR,12aS,12bS)-10-(4-((5-oxa-2-azaspiro[3.4]octan-7-yl)methyl)phenyl)-7-hydroxy-8b-(2-hydroxyacetyl)-6a,8a-dimethyl-1,2,6a,6b,7,8,8a,8b,11a,12,12a,12b-dodecahydro-4H-naphtho[2′,1′:4,5]indeno[1,2-d][1,3]dioxol-4-one] | inhibit | inhibit | potency of free payloads (conclusions) [1]: lowest potency among the R stereoisomers of the series; inhibition of IL-1β production [1, 2]: dose dependent inhibition in IL-1β production; also recorded: the least potent compound among these compounds tested
C[C@]12C=CC(=O)C=C1CC[C@@H]1[C@@H]2[C@@H](O)C[C@@]2(C)[C@H]1C[C@H]1CN(c3ccc(CC4CC5(CC(N)C5)C4)cc3)C[C@]12C(=O)CO (stereo partly drawn) [INX-SM-37, (6aR,6bS,7S,8aS,8bS,11aR,12aS,12bS)-10-(4-((6-aminospiro[3.3]heptan-2-yl)methyl)phenyl)-7-hydroxy-8b-(2-hydroxyacetyl)-6a,8a-dimethyl-1,6a,6b,7,8,8a,8b,9,10,11,11a,12,12a,12b-tetradecahydronaphtho[2′,1′:4,5]indeno[1,2-c]pyrrol-4 (2H)-one] | weakly inhibits |  | potency of free payloads (conclusions) [1]: lowest potency among the R stereoisomers of the series; inhibition of IL-1β ([1]; Experiment 11: free payloads 1000-0.15 nM): weakly inhibits IL-1β
C[C@]12C=CC(=O)C=C1CC[C@@H]1[C@@H]2[C@@H](O)C[C@@]2(C)[C@H]1C[C@H]1O[C@@H](c3ccc(CC45C6C7C4C4C5C6C74N)cc3)O[C@]12C(=O)CO (stereo partly drawn) [INX-SM-9, (6aR,6bS,7S,8aS,8bS,10R,11aR,12aS,12bS)-10-(4-((4-aminocuban-1-yl)methyl)phenyl)-7-hydroxy-8b-(2-hydroxyacetyl)-6a,8a-dimethyl-1,2,6a,6b,7,8,8a,8b,11a,12,12a,12b-dodecahydro-4H-naphtho[2′,1′:4,5]indeno[1,2-d][1,3]dioxol-4-one] | inhibit | inhibit | inhibition of IL-1β production [1, 2]: dose dependent inhibition in IL-1β production
C[C@]12C=CC(=O)C=C1[C@@H](F)C[C@H]1[C@@H]3C[C@H]4O[C@@H](c5ccc(CC6CC7(CC(N)C7)C6)cc5)O[C@@]4(C(=O)CO)[C@@]3(C)C[C@H](O)[C@@]12F (stereo partly drawn) [INX-SM-25, (2S,6aS,6bR,7S,8aS,8bS,10R,11aR,12aS,12bS)-10-(4-((6-aminospiro[3.3]heptan-2-yl)methyl)phenyl)-2,6b-difluoro-7-hydroxy-8b-(2-hydroxyacetyl)-6a,8a-dimethyl-1,2,6a,6b,7,8,8a,8b,11a,12,12a,12b-dodecahydro-4H-naphtho[2′,1′:4,5]indeno[1,2-d][1,3]dioxol-4-one] | robust inhibition |  | inhibition of IL-1β production [1, 3]: robust inhibition in IL-1B production
C[C@]12C=CC(=O)C=C1CC[C@@H]1[C@@H]2[C@@H](O)C[C@@]2(C)[C@H]1C[C@H]1O[C@@H](c3ccc(CC4CC45CCC(N)CC5)cc3)O[C@]12C(=O)CO (stereo partly drawn) [INX-SM-46, (6aR,6bS,7S,8aS,8bS,10R,11aR,12aS,12bS)-10-(4-((6-aminospiro[2.5]octan-1-yl)methyl)phenyl)-7-hydroxy-8b-(2-hydroxyacetyl)-6a,8a-dimethyl-1,2,6a,6b,7,8,8a,8b,11a,12,12a,12b-dodecahydro-4H-naphtho[2′,1′:4,5]indeno[1,2-d][1,3]dioxol-4-one 2,2,2-trifluoroacetate] | more modest inhibition |  | inhibition of IL-1β production [1, 3]: more modest inhibition of cytokine production
C[C@]12C=CC(=O)C=C1CC[C@@H]1[C@@H]2[C@@H](O)C[C@@]2(C)[C@H]1C[C@H]1O[C@@H](c3ccc(CC4CC5(CC(N)C5)C4)cc3)O[C@]12C(=O)CO (stereo partly drawn) [INX-SM-32, (6aR,6bS,7S,8aS,8bS,10R,11aR,12aS,12bS)-10-(4-((6-aminospiro[3.3]heptan-2-yl)methyl)phenyl)-7-hydroxy-8b-(2-hydroxyacetyl)-6a,8a-dimethyl-1,2,6a,6b,7,8,8a,8b,11a,12,12a,12b-dodecahydro-4H-naphtho[2′,1′:4,5]indeno[1,2-d][1,3]dioxol-4-one] | inhibits | inhibits | inhibition of IL-1β and IL-6 production ([1]; Experiment 4: free payload 500-1 nM, 24 hr, n=2): dose dependent inhibition in IL-1β and IL-6 production
C[C@]12C=CC(=O)C=C1CC[C@@H]1[C@@H]2[C@@H](O)C[C@@]2(C)[C@H]1C[C@H]1O[C@@H](c3ccc(Cc4csc(N)n4)cc3)O[C@]12C(=O)CO [INX-SM-2, (6aR,6bS,7S,8aS,8bS,10R,11aR,12aS,12bS)-10-(4-((2-aminothiazol-4-yl)methyl)phenyl)-7-hydroxy-8b-(2-hydroxyacetyl)-6a,8a-dimethyl-1,2,6a,6b,7,8,8a,8b,11a,12,12a,12b-dodecahydro-4H-naphtho[2′,1′:4,5]indeno[1,2-d][1,3]dioxol-4-one] | inhibition |  | inhibition of IL-1β production ([1]; Experiment 6: free payload 1000-0.16 nM, 24 hr): dose-dependent inhibition in IL-1β production
C[C@]12C=CC(=O)C=C1CC[C@@H]1[C@@H]2[C@@H](O)C[C@@]2(C)[C@H]1C[C@H]1CN(c3ccc(Cc4cccc(N)c4)cc3)C[C@]12C(=O)CO [INX-SM-40, (6aR,6bS,7S,8aS,8bS,11aR,12aS,12bS)-10-(4-(3-aminobenzyl)phenyl)-7-hydroxy-8b-(2-hydroxyacetyl)-6a,8a-dimethyl-1,6a,6b,7,8,8a,8b,9,10,11,11a,12,12a,12b-tetradecahydronaphtho[2′,1′:4,5]indeno[1,2-c]pyrrol-4 (2H)-one] | weakly inhibit | weakly inhibit | inhibition of IL-1β and IL-6 ([1]; Experiment 12: free payloads 1000-0.15 nM): weakly inhibit IL-1β and IL-6
